Target: T1, CCK1 receptor (Rattus norvegicus, UniProt P30551)
T1 construct: from tissue; host or cells: live male rats (in vivo; gastrointestinal tract)
T1 sequence (P30551 1-444): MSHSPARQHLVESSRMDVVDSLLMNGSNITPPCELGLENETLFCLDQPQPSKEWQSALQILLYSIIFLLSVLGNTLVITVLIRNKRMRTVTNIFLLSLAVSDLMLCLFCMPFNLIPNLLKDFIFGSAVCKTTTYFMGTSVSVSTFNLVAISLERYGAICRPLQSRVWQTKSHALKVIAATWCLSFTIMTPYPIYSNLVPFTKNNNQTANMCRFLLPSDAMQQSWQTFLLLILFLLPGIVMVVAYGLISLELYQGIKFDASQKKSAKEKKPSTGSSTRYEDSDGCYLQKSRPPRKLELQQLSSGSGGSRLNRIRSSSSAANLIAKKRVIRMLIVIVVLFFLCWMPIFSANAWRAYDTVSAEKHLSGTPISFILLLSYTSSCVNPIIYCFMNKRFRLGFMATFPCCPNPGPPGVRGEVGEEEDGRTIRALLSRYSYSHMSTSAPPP
Experiment: Effects of lorglumide on noni-mediated inhibition of gastric emptying and intestinal transit
Assay type: in vivo
Conditions: lorglumide i.p. 15 min before test meal, rats given noni 1 ml/kg orally for 7 days
Description: Male rats were divided into four groups and fasted for 24 h before use. Fifteen min before gastric intubation of a non-nutrient liquid meal, the animals were injected i.p. with the following compounds in 1 ml/kg: group 1 received dimethyl sulfoxide (DMSO), […], respectively. Groups 2-4 received 1 ml/kg of noni orally once daily for 7 days.
Gastric emptying and intestinal transit were measured. Rats were intubated via a catheter with physiological saline (3 ml/kg) containing Na2^51CrO4 (0.5 μCi/ml) and 10% charcoal. The test meal was continuously stirred before intubation. Air (0.5 ml) was injected to flush the residual charcoal suspension in the catheter into rat stomach. Fifteen minutes later, the rats were decapitated and the stomach with the attached small intestine was immediately exposed by laparotomy. […] The small intestine was then divided into ten equal segments, and the radioactivity in the stomach and each segment of small intestine was measured in an automatic gamma counter. Gastric emptying was measured by determining the amount of labeled chromium contained in the small intestine fifteen minutes after intubation, expressed as a percentage of the amount given. Intestinal transit was assessed by calculating the geometric center of distribution of the radioactivity within the 10 segments by summation of the radioactivity in each segment multiplied by the segment number.

CCCCCN(CCCCC)C(=O)C(CCC(=O)O)NC(=O)c1ccc(Cl)c(Cl)c1 (centres unmarked) [lorglumide]
Noni-induced inhibition of intestinal transit: not altered | Noni-induced inhibition of gastric emptying (P<0.01): significantly prevented

Reference: patent US20080206367A1, “Morinda Citrifolia-based Formulations and Methods for Weight Management” (priority 2004, published 2008)
